Measured values as given in PubChem BioAssay AID1259407 (Chemical Carcinogenesis Research Information System (CCRIS), 2018).
Active and inactive are the calls of the source. The rule behind the calls is not given here.

System: CCRIS mutagenicity, Ames/micronucleus/aberration tests
Experiment: CCRIS mutagenicity studies

CN(C)CCN(Cc1cccs1)c1ccccn1
mutagenic call (Test System: AMES SALMONELLA TYPHIMURIUM, Strain/Indicator: TA97, Metabolic Activation: RAT, LIVER, S-9, AROCLOR 1254, Method: STANDARD PLATE): inactive; negative | mutagenic call (Test System: AMES SALMONELLA TYPHIMURIUM, Strain/Indicator: TA98, Metabolic Activation: HAMSTER LIVER S-9, AROCLOR 1254 (10%), Method: PREINCUBATION): inactive; negative | mutagenic call (Test System: AMES SALMONELLA TYPHIMURIUM, Strain/Indicator: TA98, Metabolic Activation: NONE, Method: PREINCUBATION): inactive; negative | mutagenic call (Test System: AMES SALMONELLA TYPHIMURIUM, Strain/Indicator: TA98, Metabolic Activation: NONE, Method: STANDARD PLATE): inactive; negative | mutagenic call (Test System: AMES SALMONELLA TYPHIMURIUM, Strain/Indicator: TA98, Metabolic Activation: RAT LIVER S-9, AROCLOR 1254 (10%), Method: PREINCUBATION): inactive; negative | mutagenic call (Test System: AMES SALMONELLA TYPHIMURIUM, Strain/Indicator: TA98, Metabolic Activation: RAT, LIVER, S-9, AROCLOR 1254, Method: PREINCUBATION): inactive; negative | mutagenic call (Test System: AMES SALMONELLA TYPHIMURIUM, Strain/Indicator: TA98, Metabolic Activation: RAT, LIVER, S-9, AROCLOR 1254, Method: STANDARD PLATE): inactive; negative | mutagenic call (Test System: AMES SALMONELLA TYPHIMURIUM, Strain/Indicator: TA98, Metabolic Activation: RAT, LIVER, S-9, Method: STANDARD PLATE): inactive; negative | mutagenic call (Test System: AMES SALMONELLA TYPHIMURIUM, Strain/Indicator: TA98, Method: STANDARD PLATE): inactive; negative | mutagenic call (Test System: AMES SALMONELLA TYPHIMURIUM, Strain/Indicator: TA100, Metabolic Activation: HAMSTER LIVER S-9, AROCLOR 1254 (10%), Method: PREINCUBATION): inactive; negative | mutagenic call (Test System: AMES SALMONELLA TYPHIMURIUM, Strain/Indicator: TA100, Metabolic Activation: NONE, Method: PREINCUBATION): inactive; negative | mutagenic call (Test System: AMES SALMONELLA TYPHIMURIUM, Strain/Indicator: TA100, Metabolic Activation: NONE, Method: STANDARD PLATE): inactive; negative | mutagenic call (Test System: AMES SALMONELLA TYPHIMURIUM, Strain/Indicator: TA100, Metabolic Activation: RAT LIVER S-9, AROCLOR 1254 (10%), Method: PREINCUBATION): inactive; negative | mutagenic call (Test System: AMES SALMONELLA TYPHIMURIUM, Strain/Indicator: TA100, Metabolic Activation: RAT, LIVER, S-9, AROCLOR 1254, Method: STANDARD PLATE): inactive; negative | mutagenic call (Test System: AMES SALMONELLA TYPHIMURIUM, Strain/Indicator: TA100, Metabolic Activation: RAT, LIVER, S-9, Method: STANDARD PLATE): inactive; negative | mutagenic call (Test System: AMES SALMONELLA TYPHIMURIUM, Strain/Indicator: TA100, Method: STANDARD PLATE): inactive; negative | mutagenic call (Test System: AMES SALMONELLA TYPHIMURIUM, Strain/Indicator: TA104, Metabolic Activation: NONE, Method: STANDARD PLATE): inactive; negative | mutagenic call (Test System: AMES SALMONELLA TYPHIMURIUM, Strain/Indicator: TA104, Metabolic Activation: RAT, LIVER, S-9, AROCLOR 1254, Method: STANDARD PLATE): inactive; negative | mutagenic call (Test System: AMES SALMONELLA TYPHIMURIUM, Strain/Indicator: TA104, Metabolic Activation: RAT, LIVER, S-9, Method: STANDARD PLATE): inactive; negative | mutagenic call (Test System: AMES SALMONELLA TYPHIMURIUM, Strain/Indicator: TA104, Method: STANDARD PLATE): inactive; negative | mutagenic call (Test System: AMES SALMONELLA TYPHIMURIUM, Strain/Indicator: TA1535, Metabolic Activation: HAMSTER LIVER S-9, AROCLOR 1254 (10%), Method: PREINCUBATION): inactive; negative | mutagenic call (Test System: AMES SALMONELLA TYPHIMURIUM, Strain/Indicator: TA1535, Metabolic Activation: NONE, Method: PREINCUBATION): inactive; negative | mutagenic call (Test System: AMES SALMONELLA TYPHIMURIUM, Strain/Indicator: TA1535, Metabolic Activation: RAT LIVER S-9, AROCLOR 1254 (10%), Method: PREINCUBATION): inactive; negative | mutagenic call (Test System: AMES SALMONELLA TYPHIMURIUM, Strain/Indicator: TA1535, Metabolic Activation: RAT, LIVER, S-9, AROCLOR 1254, Method: STANDARD PLATE): inactive; negative | mutagenic call (Test System: AMES SALMONELLA TYPHIMURIUM, Strain/Indicator: TA1535, Metabolic Activation: RAT, LIVER, S-9, Method: STANDARD PLATE): inactive; negative | mutagenic call (Test System: AMES SALMONELLA TYPHIMURIUM, Strain/Indicator: TA1535, Method: STANDARD PLATE): inactive; negative | mutagenic call (Test System: AMES SALMONELLA TYPHIMURIUM, Strain/Indicator: TA1537, Metabolic Activation: HAMSTER LIVER S-9, AROCLOR 1254 (10%), Method: PREINCUBATION): inactive; negative | mutagenic call (Test System: AMES SALMONELLA TYPHIMURIUM, Strain/Indicator: TA1537, Metabolic Activation: NONE, Method: PREINCUBATION): inactive; negative | mutagenic call (Test System: AMES SALMONELLA TYPHIMURIUM, Strain/Indicator: TA1537, Metabolic Activation: NONE, Method: STANDARD PLATE): inactive; negative | mutagenic call (Test System: AMES SALMONELLA TYPHIMURIUM, Strain/Indicator: TA1537, Metabolic Activation: RAT LIVER S-9, AROCLOR 1254 (10%), Method: PREINCUBATION): inactive; negative | mutagenic call (Test System: AMES SALMONELLA TYPHIMURIUM, Strain/Indicator: TA1537, Metabolic Activation: RAT, LIVER, S-9, AROCLOR 1254, Method: STANDARD PLATE): inactive; negative | mutagenic call (Test System: AMES SALMONELLA TYPHIMURIUM, Strain/Indicator: TA1537, Metabolic Activation: RAT, LIVER, S-9, Method: STANDARD PLATE): inactive; negative | mutagenic call (Test System: AMES SALMONELLA TYPHIMURIUM, Strain/Indicator: TA1537, Method: STANDARD PLATE): inactive; negative | mutagenic call (Test System: AMES SALMONELLA TYPHIMURIUM, Strain/Indicator: TA1538, Metabolic Activation: RAT, LIVER, S-9, AROCLOR 1254, Method: STANDARD PLATE): inactive; negative | mutagenic call (Test System: AMES SALMONELLA TYPHIMURIUM, Strain/Indicator: TA2638, Metabolic Activation: NONE, Method: STANDARD PLATE): inactive; negative | mutagenic call (Test System: AMES SALMONELLA TYPHIMURIUM, Strain/Indicator: TA2638, Metabolic Activation: RAT, LIVER, S-9, AROCLOR 1254, Method: STANDARD PLATE): inactive; negative | mutagenic call (Test System: AMES SALMONELLA TYPHIMURIUM, Strain/Indicator: TA2638, Metabolic Activation: RAT, LIVER, S-9, Method: STANDARD PLATE): inactive; negative | mutagenic call (Test System: AMES SALMONELLA TYPHIMURIUM, Strain/Indicator: TA2638, Method: STANDARD PLATE): inactive; negative | mutagenic call (Test System: CHINESE HAMSTER OVARY, Strain/Indicator: CHO-K1-BH4 (HGPRT), Metabolic Activation: NONE, Method: SUSPENSION/PLATE): inactive; negative | mutagenic call (Test System: CHINESE HAMSTER OVARY, Strain/Indicator: CHO-K1-BH4 (HGPRT), Metabolic Activation: RAT, LIVER, S-9, AROCLOR, Method: SUSPENSION/PLATE): inactive; negative | mutagenic call (Test System: E. COLI, Strain/Indicator: WP2 UVRA, Metabolic Activation: NONE, Method: STANDARD PLATE): inactive; negative | mutagenic call (Test System: E. COLI, Strain/Indicator: WP2 UVRA, Metabolic Activation: RAT, LIVER, S-9, AROCLOR 1254, Method: STANDARD PLATE): inactive; negative | mutagenic call (Test System: E. COLI, Strain/Indicator: WP2 UVRA, Metabolic Activation: RAT, LIVER, S-9, Method: STANDARD PLATE): inactive; negative | mutagenic call (Test System: E. COLI, Strain/Indicator: WP2 UVRA, Method: STANDARD PLATE): inactive; negative | mutagenic call (Test System: MOUSE LYMPHOMA, Strain/Indicator: L5178Y (TK+/+)/TRIFLUOROTHYMIDINE, Metabolic Activation: RAT LIVER S-9, AROCLOR 1254, Method: SUSPENSION/PLATE): inactive; negative | mutagenic call (Test System: MOUSE LYMPHOMA, Strain/Indicator: L5178Y (TK+/TK-), Metabolic Activation: NONE, Method: SUSPENSION/PLATE): inactive; negative | mutagenic call (Test System: MOUSE LYMPHOMA, Strain/Indicator: L5178Y (TK+/TK-), Metabolic Activation: RAT, LIVER, S-9, AROCLOR 1242 AND 1254 (2:1), Method: SUSPENSION/PLATE): active; positive | mutagenic call (Test System: MOUSE LYMPHOMA, Strain/Indicator: L5178Y (TK+/TK-), Metabolic Activation: RAT, LIVER, S-9, AROCLOR 1242 AND 1254 (2:1 MIXTURE), Method: SUSPENSION/PLATE): active; positive | mutagenic call (Test System: MOUSE LYMPHOMA, Strain/Indicator: L5178Y (TK+/TK-), Metabolic Activation: RAT, LIVER, S-9, AROCLOR 1254, Method: SUSPENSION/PLATE): inactive; negative | mutagenic call (Test System: UDS RAT HEPATOCYTES, Strain/Indicator: THY INCORP, Metabolic Activation: NONE, Method: AUTORADIOGRAPHY (SERUM-FREE MEDIA)): active; positive
